Assay results taken from patent US20240308968A1, “FUNGICIDAL SUBSTITUTED HETEROCYCLES” (FMC Corporation, priority 2021, published 2024).

How the values were obtained:
Format in all cases: in vivo
Conditions in all cases: 50 ppm, 100 = 100% disease control, 0 = no control
Alternaria solani = experiment: Test F: preventive spray on tomato seedlings, tomato early blight disease rating
Text: (§1) General protocol for preparing test suspensions for Tests A-F: the test compounds were first dissolved in acetone in an amount equal to 3% of the final volume and then suspended at the desired concentration (in ppm) in acetone and purified water (50/50 mix by volume) containing 50 to 250 ppm of the surfactant PEG400 (polyhydric alcohol esters). The resulting test suspensions were then used in Tests A-F.
(§2) The test suspension was sprayed to the point of run-off on tomato seedlings. The following day the seedlings were inoculated with a spore suspension of Alternaria solani (the causal agent of tomato early blight) and incubated in a saturated atmosphere at 27° C. for 48 h, and then moved to a growth chamber at 20° C. for 3 days, after which time visual disease ratings were made. A rating of 100 indicates 100% disease control and a rating of 0 indicates no disease control (relative to the controls). A dash (-) indicates the compound was not tested.

[1] = system: Puccinia recondita f. sp. Tritici; experiment: Test B: preventive spray on wheat seedlings, wheat leaf rust disease rating
Text: as §1
The test solution was sprayed to the point of run-off on wheat seedlings. The following day the seedlings were inoculated with a spore suspension of Puccinia recondita f. sp. Tritici (the causal agent of wheat leaf rust) and incubated in a saturated atmosphere at 20° C. for 24 h, and then moved to a growth chamber at 20° C. for 7 days, after which time disease ratings were made.
as §2

[2] = system: Blumeria graminis f. sp. Tritici; experiment: Test C: preventive spray on wheat seedlings, wheat powdery mildew disease rating
Text: as §1
The test suspension was sprayed to the point of run-off on wheat seedlings. The following day the seedlings were inoculated with a spore dust of Blumeria graminis f. sp. Tritici, (also known as Erysiphe graminis f. sp. Tritici, the causal agent of wheat powdery mildew) and incubated in a growth chamber at 20° C. for 8 days, after which time visual disease ratings were made.
as §2

Zymoseptoria tritici = experiment: Test A: preventive spray on wheat seedlings, wheat leaf blotch disease rating
Text: as §1
The test solution was sprayed to the point of run-off on wheat seedlings. The following day the seedlings were inoculated with a spore suspension of Zymoseptoria tritici (the causal agent of wheat leaf blotch) and incubated in a saturated atmosphere at 24° C. for 48 h, and then moved to a growth chamber at 20° C. for 17 days, after which time disease ratings were made. […]

Botrytis cinerea = experiment: Test E: preventive spray on tomato seedlings, tomato Botrytis disease rating
Text: as §1
The test suspension was sprayed to the point of run-off on tomato seedlings. The following day the seedlings were inoculated with a spore suspension of Botrytis cinerea (the causal agent of tomato Botrytis) and incubated in a saturated atmosphere at 20° C. for 48 h, and then moved to a growth chamber at 24° C. for 3 days, after which time visual disease ratings were made.
as §2

Phakopsora pachyrhizi = experiment: Test D: preventive spray on soybean seedlings, Asian soybean rust disease rating
Text: as §1
The test solution was sprayed to the point of run-off on soybean seedlings. The following day the seedlings were inoculated with a spore suspension of Phakopsora pachyrhizi (the causal agent of Asian soybean rust) and incubated in a saturated atmosphere at 22° C. for 24 h and then moved to a growth chamber at 22° C. for 8 days, after which time visual disease ratings were made.
as §2

SMILES	Test F disease control rating (Alternaria solani)	Test B disease control rating [1]	Test C disease control rating [2]	Test A disease control rating (Zymoseptoria tritici)	Test E disease control rating (Botrytis cinerea)	Test D disease control rating (Phakopsora pachyrhizi)
Cc1c(-c2ccc(F)cc2Cl)c(-c2ccc(Cl)s2)nn(C)c1=O [Compound 10]	16%	68%	96%	100%	96%	12%
Cc1cnn(-c2nn(C)c(=O)c(C)c2-c2ccc(F)cc2Cl)c1 [Compound 11]	24%	0%	97%	70%	91%	0%
Cc1cnn(-c2nn(C)c(=O)c(C)c2-c2ccccc2Cl)c1 [Compound 12]	15%	0%	0%	0%	0%	17%
Cc1c(-c2ccc(F)cc2Cl)c(-c2cc(Br)sc2Br)nn(C)c1=O [Compound 13]	0%	80%	73%	99%	90%	0%
Cc1cscc1-c1nn(C)c(=O)c(C)c1-c1ccc(F)cc1Cl [Compound 14]	94%	99%	97%	100%	96%	72%
Cc1c(-c2nn(C)c(=O)c(C)c2-c2ccc(F)cc2Cl)csc1Br [Compound 15]	99%	100%	99%	100%	92%	24%
Cc1c(-c2ccc(F)cc2Cl)c(-c2sc(Br)cc2Br)nn(C)c1=O [Compound 16]	0%	68%	64%	99%	37%	0%
Cc1c(-c2ccc(F)cc2Cl)c(-c2ccc(Br)s2)nn(C)c1=O [Compound 17]	0%	68%	56%	99%	39%	12%
COc1ccc(Cl)c(-c2nn(C)c(=O)c(C)c2-c2ccsc2C)c1 [Compound 18]	0%	92%	93%	96%	97%	13%
Cc1c(-c2ccc(F)cc2Cl)c(-c2ccn(C)n2)nn(C)c1=O [Compound 20]	0%	19%	72%	0%	33%	0%
